Experimental data taken from ChEMBL document CHEMBL6096732 (J Med Chem, 2025).
Active and inactive are the calls of the source. No cut-off for these calls is given here.

Columns and labels:
HCT-116 = experiment: cells; assay type: functional, cell-based; conditions: Homo sapiens, HCT-116, 72 h
Description: Antiproliferative activity against human HCT-116 cells assessed as inhibition of cell growth incubated for 72 hrs by MTT assay

[1] = Clearance in male Sprague-Dawley rat at 2 mg/kg, iv measured after 12 hrs by LC-MS/MS analysis; assay type: ADME, organism-based; conditions: in vivo
Mus musculus [2] = experiment: In vivo induction of PD-L1 degradation in male C57BL/6 mouse model implanted with mouse B16-F10 cells assessed as decrease in PD-L1 protein expression in tumor at 50 mg/kg, po administered once daily via gavage for 14 days by Western blot analysis; assay type: functional, organism-based; conditions: time 14.0 day
4T1 [3] = experiment: Antitumor activity against mouse 4T1 cells implanted in female BALB/c mouse model assessed as induction of DNA damage by measuring increase in gamma-H2AX expression in tumor administrated orally as once daily dose via gavage for 14 days by Western blot analysis; assay type: functional, cell-based; conditions: route po, time 14.0 day
[4] = molecular target: Protein deacetylase HDAC6 (Homo sapiens, UniProt Q9UBN7); experiment: Inhibition of recombinant full length human HDAC6 using Boc-Lys(acetyl)-AMC as substrate preincubated for 1 hr followed by substrate addition and measured after 2 hrs by fluorescence based micro plate reader analysis
Mus musculus [5] = experiment: Immunomodulatory activity in male C57BL/6 mouse model implanted with mouse B16-F10 cells assessed as increase in CD3+ CD8+ T cells in tumor at 50 mg/kg, po co-administered with NP-19 as once daily dosage via gavage for 14 days by flow cytometric analysis (reference value: 3.2 %); assay type: functional; conditions: time 14 day
[6] = Toxicity in male C57BL/6 mouse implanted with mouse B16-F10 cells assessed as histopathological changes in liver at 50 mg/kg, po co-administered with NP-19 as once daily dosage via gavage for 14 days by HandE staining based microscopic analysis; assay type: organism-based; conditions: in vivo, 336 h, time 14 day
Histone deacetylase 5 = Histone deacetylase 5 (Homo sapiens, UniProt Q9UQL6); experiment: Inhibition of recombinant HDAC5 (unknown origin) using Boc-Lys(trifluoroacetyl)-AMC as substrate preincubated for 1 hr followed by substrate addition and measured after 2 hrs by fluorescence based micro plate reader analysis
Histone deacetylase 7 = Histone deacetylase 7 (Homo sapiens, UniProt Q8WUI4); experiment: Inhibition of recombinant HDAC7 (unknown origin) using Boc-Lys(trifluoroacetyl)-AMC as substrate preincubated for 1 hr followed by substrate addition and measured after 2 hrs by fluorescence based micro plate reader analysis
[7] = Ratio of AUC (0 to t) to AUC (0 to infinity) in male Sprague-Dawley rat at 20 mg/kg, po measured after 12 hrs by LC-MS/MS analysis; assay type: ADME, organism-based; conditions: in vivo
4T1 [8] = experiment: Induction of DNA damage in mouse 4T1 cells assessed as increase in gamma-H2AX expression at 2 uM incubated for 24 hrs in presence of olaparib by Western blot analysis; assay type: functional, cell-based
[9] = Half-life in male Sprague-Dawley rat at 20 mg/kg, po measured after 12 hrs by LC-MS/MS analysis; assay type: ADME, organism-based; conditions: in vivo
[10] = AUMC (0 to infinity) in male Sprague-Dawley rat at 20 mg/kg, po measured after 12 hrs by LC-MS/MS analysis; assay type: ADME, organism-based; conditions: in vivo
[11] = VRT (0 to t) in male Sprague-Dawley rat at 20 mg/kg, po measured after 12 hrs by LC-MS/MS analysis; assay type: ADME, organism-based; conditions: in vivo
[12] = Clast in male Sprague-Dawley rat at 20 mg/kg, po measured after 12 hrs by LC-MS/MS analysis; assay type: ADME, organism-based; conditions: in vivo, read-out: Clast
[13] = MRT (0 to infinity) in male Sprague-Dawley rat at 20 mg/kg, po measured after 12 hrs by LC-MS/MS analysis; assay type: ADME, organism-based; conditions: in vivo
[14] = VRT (0 to t) in male Sprague-Dawley rat at 2 mg/kg, iv measured after 12 hrs by LC-MS/MS analysis; assay type: ADME, organism-based; conditions: in vivo
[15] = Tmax in male Sprague-Dawley rat at 2 mg/kg, iv measured after 12 hrs by LC-MS/MS analysis; assay type: ADME, organism-based; conditions: in vivo
B16-F10 [16] = experiment: Antitumor activity against mouse B16-F10 cells implanted in male C57BL/6 mouse model assessed as tumor growth inhibition at 50 mg/kg, po administered once daily via gavage for 14 days relative to control; assay type: functional; conditions: B16-F10, 336 h, time 14 day, read-out: TGI
Mus musculus [17] = experiment: In vivo induction of PD-L1 degradation in male C57BL/6 mouse model implanted with mouse B16-F10 cells assessed as decrease in PD-L1 protein expression in tumor at 50 mg/kg, po administered once daily via gavage for 14 days by DAPI staining based immunofluorescence analysis; assay type: functional, organism-based; conditions: time 14.0 day
4T1 [18] = experiment: Antitumor activity against mouse 4T1 cells implanted in female BALB/c mouse model assessed as decrease in PAPR1 fluorescence intensity in tumor co-administrated orally with olaparib as once daily dose via gavage for 14 days by DAPI staining based immunofluorescence analysis; assay type: functional, cell-based; conditions: route po, time 14.0 day
B16-F10 [19] = experiment: Inhibition of cell migration in mouse B16-F10 cells assessed as wound area at 10 uM incubated for 24 hrs by wound healing assay (reference value: 50.36 +/- 1.68 %); assay type: functional; set-up: scale not given: the % may be the effect or the level left
4T1 [20] = experiment: Antitumor activity against mouse 4T1 cells implanted in female BALB/c mouse model assessed as decrease in PAPR1 expression in tumor co-administrated orally with olaparib as once daily dose via gavage for 14 days by Western blot analysis; assay type: functional, cell-based; conditions: route po, time 14.0 day
B16-F10 [21] = experiment: Anti-invasive activity in mouse B16-F10 cells assessed as reduction in invasive capacity at 5 to 20 uM incubated for 24 to 48 hrs by crystal violet staining based microscopic analysis; assay type: functional, cell-based; conditions: dose 5-20 µM, time 24-48 hrs
4T1 [22] = experiment: Antitumor activity against mouse 4T1 cells implanted in female BALB/c mouse model assessed as decrease in PAPR1 expression in tumor administrated orally as once daily dose via gavage for 14 days by Western blot analysis; assay type: functional, cell-based; conditions: route po, time 14.0 day
B16-F10 [23] = experiment: Cell cycle arrest in mouse B16-F10 cells assessed as accumulation of cells in G1 phase incubated for 48 hrs by RNase A/PI staining based flow cytometric analysis; assay type: functional; conditions: dose 5-20 µM
[24] = MRT (0 to infinity) in male Sprague-Dawley rat at 2 mg/kg, iv measured after 12 hrs by LC-MS/MS analysis; assay type: ADME, organism-based; conditions: in vivo
B16-F10 [25] = experiment: Inhibition of cell migration in mouse B16-F10 cells incubated for 24 to 48 hrs by crystal violet staining based microscopic analysis; assay type: functional; conditions: dose 5-20 µM, time 24-48 hrs
[26] = AUC (0 to infinity) in male Sprague-Dawley rat at 2 mg/kg, iv measured after 12 hrs by LC-MS/MS analysis; assay type: ADME, organism-based; conditions: in vivo
Histone deacetylase 8 = Histone deacetylase 8 (Homo sapiens, UniProt Q9BY41); experiment: Inhibition of recombinant HDAC8 (unknown origin) using Boc-Lys(trifluoroacetyl)-AMC as substrate preincubated for 1 hr followed by substrate addition and measured after 2 hrs by fluorescence based micro plate reader analysis
[27] = MRT (0 to t) in male Sprague-Dawley rat at 20 mg/kg, po measured after 12 hrs by LC-MS/MS analysis; assay type: ADME, organism-based; conditions: in vivo
B16-F10 [28] = experiment: Upregulation of cathepsin B expression in mouse B16-F10 cells at 5 to 20 uM incubated for 24 hrs by Western blot analysis; assay type: functional, cell-based; conditions: dose 5-20 µM
4T1 [29] = experiment: Effect on acetylated alpha-tubulin expression level in mouse 4T1 cells at 5 to 20 uM incubated for 24 hrs by Western blot analysis; assay type: functional, cell-based; conditions: dose 5-20 µM

Histone deacetylase 8, sequence (Q9BY41 whole entry): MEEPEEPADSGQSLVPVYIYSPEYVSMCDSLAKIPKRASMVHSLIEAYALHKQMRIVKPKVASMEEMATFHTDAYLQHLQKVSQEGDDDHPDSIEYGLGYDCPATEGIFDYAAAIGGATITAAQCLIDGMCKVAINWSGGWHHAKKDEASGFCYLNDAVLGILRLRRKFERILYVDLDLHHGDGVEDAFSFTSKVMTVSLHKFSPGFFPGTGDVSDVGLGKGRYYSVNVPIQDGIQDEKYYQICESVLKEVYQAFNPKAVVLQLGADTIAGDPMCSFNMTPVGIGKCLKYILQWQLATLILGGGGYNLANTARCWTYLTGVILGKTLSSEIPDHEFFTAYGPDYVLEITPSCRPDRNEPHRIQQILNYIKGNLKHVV
Histone deacetylase 5, sequence (Q9UQL6 whole entry): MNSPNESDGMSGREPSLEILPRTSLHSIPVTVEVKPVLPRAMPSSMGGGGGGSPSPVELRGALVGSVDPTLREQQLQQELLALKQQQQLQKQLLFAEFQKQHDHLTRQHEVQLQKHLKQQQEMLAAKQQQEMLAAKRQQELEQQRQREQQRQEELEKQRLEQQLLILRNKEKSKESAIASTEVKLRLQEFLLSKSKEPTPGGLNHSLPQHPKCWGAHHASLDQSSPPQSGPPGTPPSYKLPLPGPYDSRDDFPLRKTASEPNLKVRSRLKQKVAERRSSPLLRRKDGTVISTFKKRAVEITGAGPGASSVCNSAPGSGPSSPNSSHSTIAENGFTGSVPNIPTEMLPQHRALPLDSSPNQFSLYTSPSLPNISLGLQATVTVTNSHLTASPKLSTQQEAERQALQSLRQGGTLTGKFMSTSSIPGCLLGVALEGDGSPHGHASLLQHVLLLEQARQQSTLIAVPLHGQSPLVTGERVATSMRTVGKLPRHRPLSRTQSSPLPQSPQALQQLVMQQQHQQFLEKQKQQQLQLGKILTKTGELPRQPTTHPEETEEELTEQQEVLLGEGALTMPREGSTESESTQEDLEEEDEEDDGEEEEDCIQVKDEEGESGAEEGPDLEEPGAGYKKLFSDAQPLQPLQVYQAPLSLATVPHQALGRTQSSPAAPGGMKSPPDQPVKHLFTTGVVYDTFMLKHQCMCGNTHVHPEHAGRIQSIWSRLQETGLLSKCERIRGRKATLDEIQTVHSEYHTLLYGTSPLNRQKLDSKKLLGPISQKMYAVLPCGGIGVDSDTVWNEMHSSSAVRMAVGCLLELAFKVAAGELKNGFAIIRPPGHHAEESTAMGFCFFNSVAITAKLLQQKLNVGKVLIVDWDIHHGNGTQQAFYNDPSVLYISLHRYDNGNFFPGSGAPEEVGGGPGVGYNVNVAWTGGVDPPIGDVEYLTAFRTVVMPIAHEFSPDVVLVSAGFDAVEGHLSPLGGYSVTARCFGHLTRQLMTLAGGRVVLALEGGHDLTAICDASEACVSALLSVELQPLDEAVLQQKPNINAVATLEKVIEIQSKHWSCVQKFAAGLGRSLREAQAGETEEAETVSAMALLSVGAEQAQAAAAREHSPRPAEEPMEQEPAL
Histone deacetylase 7, sequence (Q8WUI4 whole entry): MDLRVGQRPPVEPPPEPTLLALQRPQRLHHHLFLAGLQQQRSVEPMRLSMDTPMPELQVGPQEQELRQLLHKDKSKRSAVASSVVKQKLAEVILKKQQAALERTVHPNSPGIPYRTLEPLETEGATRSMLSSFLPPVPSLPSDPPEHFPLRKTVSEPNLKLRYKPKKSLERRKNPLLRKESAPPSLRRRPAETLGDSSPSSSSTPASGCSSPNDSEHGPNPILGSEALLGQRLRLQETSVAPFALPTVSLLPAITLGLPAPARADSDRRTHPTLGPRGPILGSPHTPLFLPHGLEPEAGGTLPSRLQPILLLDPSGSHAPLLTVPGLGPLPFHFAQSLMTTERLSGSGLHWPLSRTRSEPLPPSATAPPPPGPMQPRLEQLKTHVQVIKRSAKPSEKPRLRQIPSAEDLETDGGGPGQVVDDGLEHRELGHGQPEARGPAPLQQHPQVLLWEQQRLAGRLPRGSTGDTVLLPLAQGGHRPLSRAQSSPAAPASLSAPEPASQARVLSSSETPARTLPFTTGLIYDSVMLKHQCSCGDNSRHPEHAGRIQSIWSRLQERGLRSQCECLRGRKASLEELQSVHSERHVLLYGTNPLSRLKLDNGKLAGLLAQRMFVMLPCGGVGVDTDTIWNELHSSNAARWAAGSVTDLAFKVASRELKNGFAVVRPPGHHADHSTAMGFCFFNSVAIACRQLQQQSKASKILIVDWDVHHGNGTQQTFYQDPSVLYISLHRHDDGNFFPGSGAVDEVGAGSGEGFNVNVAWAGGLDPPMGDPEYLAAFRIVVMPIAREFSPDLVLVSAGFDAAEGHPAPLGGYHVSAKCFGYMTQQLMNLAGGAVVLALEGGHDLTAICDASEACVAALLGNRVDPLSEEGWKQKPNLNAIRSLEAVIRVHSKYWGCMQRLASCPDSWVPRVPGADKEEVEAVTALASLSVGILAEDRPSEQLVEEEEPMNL
Protein deacetylase HDAC6, sequence (Q9UBN7 whole entry): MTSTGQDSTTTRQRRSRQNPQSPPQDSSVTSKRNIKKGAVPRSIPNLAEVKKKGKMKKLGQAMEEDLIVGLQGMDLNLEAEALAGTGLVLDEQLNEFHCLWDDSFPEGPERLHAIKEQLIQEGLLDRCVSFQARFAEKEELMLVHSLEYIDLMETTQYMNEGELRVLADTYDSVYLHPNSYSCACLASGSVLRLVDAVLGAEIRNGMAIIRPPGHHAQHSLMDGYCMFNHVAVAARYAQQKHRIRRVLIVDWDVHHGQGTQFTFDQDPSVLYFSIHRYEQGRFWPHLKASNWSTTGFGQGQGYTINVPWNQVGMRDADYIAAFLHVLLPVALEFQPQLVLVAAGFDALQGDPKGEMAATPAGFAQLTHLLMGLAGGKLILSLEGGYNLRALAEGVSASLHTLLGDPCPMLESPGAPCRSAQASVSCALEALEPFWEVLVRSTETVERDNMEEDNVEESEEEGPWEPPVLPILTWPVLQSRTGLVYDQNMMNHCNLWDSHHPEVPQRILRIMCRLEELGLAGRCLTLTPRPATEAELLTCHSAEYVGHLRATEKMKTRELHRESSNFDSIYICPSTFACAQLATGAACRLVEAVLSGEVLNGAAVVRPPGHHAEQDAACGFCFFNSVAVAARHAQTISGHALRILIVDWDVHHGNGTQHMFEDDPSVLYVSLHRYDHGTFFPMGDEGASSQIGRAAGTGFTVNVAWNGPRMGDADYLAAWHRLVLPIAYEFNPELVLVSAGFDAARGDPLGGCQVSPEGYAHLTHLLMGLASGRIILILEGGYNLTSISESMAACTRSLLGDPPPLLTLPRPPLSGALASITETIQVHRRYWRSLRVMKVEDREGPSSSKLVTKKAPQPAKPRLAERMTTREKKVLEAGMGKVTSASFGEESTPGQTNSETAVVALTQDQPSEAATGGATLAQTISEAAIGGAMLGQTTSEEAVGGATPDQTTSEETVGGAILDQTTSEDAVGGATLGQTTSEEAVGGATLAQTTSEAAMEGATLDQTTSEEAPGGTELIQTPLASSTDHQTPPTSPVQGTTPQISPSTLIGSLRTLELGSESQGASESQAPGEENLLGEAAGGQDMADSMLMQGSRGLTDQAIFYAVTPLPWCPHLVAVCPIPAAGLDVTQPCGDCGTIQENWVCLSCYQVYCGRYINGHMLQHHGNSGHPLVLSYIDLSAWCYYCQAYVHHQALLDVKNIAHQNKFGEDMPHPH

## CCCNNC(=O)c1ccc(Cn2c3ccccc3c3c(-c4ccccn4)nc4ccccc4c32)cc1
HCT-116
  IC50: 6.82 µM
[1]
  clearance: 39.6 mL/min/kg
Mus musculus [2]
  Activity: Active
4T1 [3]
  Activity: Active
[4]
  IC50: 8.2 µM
Mus musculus [5]
  Activity: 32%
[6]
  Activity: Non-toxic
Histone deacetylase 5
  IC50: > 10 µM
Histone deacetylase 7
  IC50: > 10 µM
[7]
  Ratio AUC: 96.65%
4T1 [8]
  Activity: Active
[9]
  half-life: 2.03 h
[10]
  AUMC: 39983.874 hr.hr.ug/L
[11]
  VRT(t): 7.932 hr2
[12]
  concentration at 12 h: 106 ng/mL
[13]
  MRT inf: 4.9 h
[14]
  VRT(t): 0.641 hr2
[15]
  Tmax: 4.98 min
B16-F10 [16]
  inhibition in vivo at 50 mg/kg: 67%
Mus musculus [17]
  Activity: Active
4T1 [18]
  Activity: Active
B16-F10 [19]
  Activity: 10.25%
4T1 [20]
  Activity: Active
B16-F10 [21]
  Activity: Active
4T1 [22]
  Activity: Active
B16-F10 [23]
  Activity: Dose-dependent-effect
[24]
  MRT inf: 0.741 h
B16-F10 [25]
  inhibition: Dose-dependent-effect
[26]
  AUC(0-inf): 857 ng·h/mL
Histone deacetylase 8
  IC50: > 10 µM
[27]
  MRT last at 12 h: 4.43 h
B16-F10 [28]
  Activity: Active
4T1 [29]
  Activity: inactive
